Test results: US20130045952A1, “ABA Receptor Agonists for Increased Plant Stress Resistance” (Van Andel Research Institute, priority 2011, published 2013)

Biological target: T1, PYL2 A93F (Arabidopsis thaliana, UniProt O80992, A93F)
T1 construct: PYL2 (residues 14-188), and HAB1 (residues 172-511) were prepared as recombinant proteins in E. coli; made in house; host or cells: E. coli (stated for PYL2 in general)
Assay: PP2C binding and phosphatase assays of mutant PYL2 A93F
Type: biochemical
Excerpt: The closest distance between the pyridine ring of pyrabactin and the LPA gating residues is 4.8 Å-7.0 Å when the LPA loop assumes the ABA-bound closed conformation, but is 11-13 Å when the LPA gate is in open conformation. In contrast, the distance of the naphthalene double ring of pyrabactin or the cyclohexene ring of ABA to the three side chains of the LPA gate in the PYL1 structure is 3.4-4.6 Å, a range for strong Van der Waals interactions, thus helping to keep the LPA gate in the closed conformation. […] To validate this hypothesis, we changed the alanine in the LPA loop to a larger residue. […] As expected from structural modeling, replacement of the gate residue A93 with the bulky phenylalanine ring also abrogated ABA to promote PYL2 activation.
Mutant proteins were expressed as H6GST-fusion proteins and purified by glutathione sepharose chromatography. Protein-protein interactions were determined by luminescence proximity AlphaScreen assay. Biotinylated PP2C proteins for the luminescence proximity assay were generated by in vivo biotinylation of avitag-PP2C fusion proteins. PP2C phosphatase activity was measured by phosphate release from a SnRK2.6 phosphoprotein.
Site-directed mutagenesis was carried out using the QuickChange method (Stratagene). Mutations and all plasmid constructs were confirmed by sequencing.

T1 sequence (O80992 14-188 A93F): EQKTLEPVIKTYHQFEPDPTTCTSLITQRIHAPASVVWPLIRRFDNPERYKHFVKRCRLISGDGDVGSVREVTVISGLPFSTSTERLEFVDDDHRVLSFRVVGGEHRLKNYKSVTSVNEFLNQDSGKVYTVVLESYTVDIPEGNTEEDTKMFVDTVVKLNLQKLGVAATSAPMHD

(+)-Abscisic Acid
Activation of mutant PYL2 A93F receptor: abrogated
